In PubChem BioAssay (NCI):
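Values below derive from 48-hour exposures of cells grown in 96-well plates, with endpoints linearly interpolated between the two concentrations bracketing the appropriate inhibition level. At the GI50, growth is halved. Definition used: TGI = concentration required for complete inhibition of growth.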

Key:
Test in all cases: growth of human tumour cells (NCI), 48 h
[1] = tested on: CCRF-CEM leukemia
[2] = tested on: RPMI-8226 leukemia
[3] = tested on: TK-10 renal
[4] = tested on: A549 NSCLC
[5] = tested on: NCI-H522 lung
[6] = tested on: SNB-75 CNS
[7] = tested on: HT29 colon
[8] = tested on: SR leukemia
[9] = tested on: MALME-3M melanoma
[10] = tested on: NCI-H23 lung

Structure (SMILES) | GI50 [1] [µM] | TGI [1] [µM] | GI50 [2] [µM] | TGI [2] [µM] | GI50 [3] [µM] | TGI [3] [µM] | GI50 [4] [µM] | TGI [4] [µM] | GI50 [5] [µM] | TGI [5] [µM] | GI50 [6] [µM] | TGI [6] [µM] | GI50 [7] [µM] | TGI [7] [µM] | GI50 [8] [µM] | TGI [8] [µM] | GI50 [9] [µM] | TGI [9] [µM] | GI50 [10] [µM] | TGI [10] [µM]
Cc1cccc2c(C3=C(c4cn(C)c5ccccc45)C(=O)NC3=O)cn(C)c12 | > 18 | > 25 | > 18.6 | > 25 | > 25 | > 25 | > 25 | > 25 | > 17 | > 25 | 1.15 | > 25 | > 13.8 | > 25 | 4.88 | > 25 | > 17.8 | > 25 | > 25 | > 25
Cc1cc(F)c(C(=O)Nc2cccc(-c3nncn3C(C)C)n2)cc1-n1cnc(C2CC2)c1 | 21 | > 100 | 7.54 | 35.3 | 8.12 | 92.5 | 15.2 | 74 | 8.56 | 44.1 | 10.3 | 64.3 | 18.2 | > 100 | 4.42 | > 100 | 23.3 | 72.1 | 12 | 46.6
C=CC(=O)N[C@@H]1CN(c2nc(Nc3cn(C)nc3OC)c3ncn(C)c3n2)C[C@H]1F | 39.4 | > 100 | > 71.7 | > 100 | 0.0664 | 23.9 | 24.5 | > 100 | 0.0335 | 17.7 | 19.4 | > 78 | 20.9 | > 83.1 | 7.57 | > 91.3 | 23.4 | > 100 | 27.5 | > 100
O=C(O)C1C2C=CC(O2)C1C(=O)NCc1cccnc1 (stereo not given) | – | > 100 | – | > 100 | – | > 100 | – | > 100 | – | > 100 | – | > 100 | – | > 100 | – | > 100 | – | > 100 | – | > 100
CCOC(=O)/C(=C/CC/C(C)=C/CC/C(C)=C/CCc1ccoc1)CC(=O)N1CCCCC1 | 3.56 | 22.5 | 1.87 | 5.47 | 5.66 | 75.5 | 1.92 | 4.14 | 2.75 | 9.2 | 4.1 | 35.3 | – | – | 3.11 | 16 | 2.62 | 7.09 | 3.12 | 15.1
C[C@@H](O)[C@@H](C)Oc1nc(Nc2ccc(S(=N)(=O)C3CC3)cc2)ncc1C(F)(F)F (stereo not given in full) | 0.0231 | 0.0621 | 0.0226 | 0.0586 | 0.0377 | > 45.9 | 0.0298 | 15.6 | 0.0328 | 0.81 | 0.0162 | 0.0554 | 0.033 | – | < 0.0122 | 0.0475 | 0.0455 | 0.167 | 0.0322 | 0.318
N#CCCN(CCC#N)c1ccc(/C=C(/NC(=O)c2cc([N+](=O)[O-])ccc2Cl)C(=O)N=[N+]=[N-])cc1 | – | > 100 | – | > 100 | – | > 100 | – | > 100 | – | > 100 | – | > 100 | – | > 100 | – | > 100 | – | > 100 | – | > 100
C/C(NNC(=O)c1ccccc1O)=C1\C=Nc2ccccc2S1 | – | > 100 | – | > 100 | – | > 100 | – | 28.2 | – | > 100 | – | 43.8 | – | > 100 | – | > 100 | – | 27.6 | – | > 100
Cc1cc2c(cc1Cl)SC(N(c1ccccc1Cl)S(=O)(=O)c1ccc(Br)s1)=NS2(=O)=O | 25.8 | 82.1 | 24.8 | 82.3 | 21.9 | 66.4 | 25.7 | > 100 | 13.5 | 31.7 | 17.3 | 48.7 | 19.9 | 41.6 | 23.8 | 83.4 | 13.8 | 39.4 | 19.9 | 56.4
CC1CC(C[N+](=O)[O-])CC2(C1)OCCO2 (stereo not given) | – | > 100 | – | > 100 | – | > 100 | – | > 100 | – | > 100 | – | > 100 | – | – | – | > 100 | – | > 100 | – | –
CCOC(=O)c1oc2c(OC)ccc3c2c1CCC3 | – | > 100 | – | > 100 | – | > 100 | – | > 100 | – | > 100 | – | > 100 | – | > 100 | – | > 100 | – | > 100 | – | > 100
O=C(COc1ccc(/C=C2\Oc3ccc4ccccc4c3C2=O)cc1)c1ccc([N+](=O)[O-])cc1 | 1.81 | 4.12 | 1.6 | 5.11 | 16.6 | 49.3 | 45 | > 100 | 2.04 | 5.41 | 1.47 | 13.6 | 9.05 | 24 | 0.0291 | 1.84 | 13.3 | 39.8 | 12.5 | 29.4
NC1=NN(c2ccccc2)C(=O)C1C(=O)C(=O)Nc1ccc(Cl)cc1 (stereo not given) | – | > 100 | – | > 100 | – | > 100 | – | > 100 | – | > 100 | – | > 100 | – | > 100 | – | > 100 | – | > 100 | – | > 100
Nc1nc(N)c2c(n1)NC(c1sc(Cl)nc1Cl)CC(c1ccccc1)=N2 (stereo not given) | 3.21 | 16.9 | 4.99 | 31.5 | 11.5 | 24.1 | 5.02 | 19.4 | 3.27 | 14.3 | 1.63 | 7.59 | – | – | 2.25 | 8.86 | 6.33 | 19.1 | 8.23 | 23.3
Nc1nc(=O)n(C2CC(O)C(CO)O2)cc1F (stereo not given) | 0.00276 | > 100 | – | > 100 | > 100 | > 100 | 0.0049 | > 100 | – | > 100 | – | > 100 | < 0.0489 | > 100 | > 100 | > 100 | > 100 | > 100 | < 0.0332 | > 28.5
